Results from PubChem BioAssay (NCI).
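1) Cells in 96-well plates. 2) Compound, 48 h, 5 concentrations. 3) Linear interpolation between surrounding doses. 4) Unreached endpoint = highest concentration. GI50 is the concentration that inhibits growth by half. TGI: total growth inhibition.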

Tests used:
Assay in all cases: DTP human tumour cell line panel, 48 h
A549 NSCLC = tested on: A549 NSCLC
SK-OV-3 ovarian = tested on: SK-OV-3 ovarian
T-47D breast = tested on: T-47D breast
SF-268 CNS = tested on: SF-268 CNS
EKVX NSCLC = tested on: EKVX NSCLC
M14 melanoma = tested on: M14 melanoma
HS 578T breast = tested on: HS 578T breast
BT-549 breast = tested on: BT-549 breast
DU-145 prostate = tested on: DU-145 prostate
TK-10 renal = tested on: TK-10 renal
CCRF-CEM leukemia = tested on: CCRF-CEM leukemia
SW-620 colon = tested on: SW-620 colon
CAKI-1 renal = tested on: CAKI-1 renal
MALME-3M melanoma = tested on: MALME-3M melanoma
K-562 leukemia = tested on: K-562 leukemia
UO-31 renal = tested on: UO-31 renal
HCC-2998 colon = tested on: HCC-2998 colon
COLO 205 colon = tested on: COLO 205 colon
NCI/ADR-RES ovarian = tested on: NCI/ADR-RES ovarian
KM12 colon = tested on: KM12 colon
HOP-92 NSCLC = tested on: HOP-92 NSCLC
SK-MEL-28 melanoma = tested on: SK-MEL-28 melanoma
OVCAR-5 ovarian = tested on: OVCAR-5 ovarian
HCT-15 colon = tested on: HCT-15 colon
HCT-116 colon = tested on: HCT-116 colon
NCI-H23 lung = tested on: NCI-H23 lung
SN12C renal = tested on: SN12C renal
MOLT-4 leukemia = tested on: MOLT-4 leukemia
UACC-62 melanoma = tested on: UACC-62 melanoma
OVCAR-8 ovarian = tested on: OVCAR-8 ovarian
NCI-H522 lung = tested on: NCI-H522 lung
ACHN renal = tested on: ACHN renal
HOP-62 NSCLC = tested on: HOP-62 NSCLC
NCI-H460 lung = tested on: NCI-H460 lung
A498 renal = tested on: A498 renal
SK-MEL-2 melanoma = tested on: SK-MEL-2 melanoma
MDA-MB-231 breast = tested on: MDA-MB-231 breast
RPMI-8226 leukemia = tested on: RPMI-8226 leukemia
U251 CNS = tested on: U251 CNS
SF-539 CNS = tested on: SF-539 CNS
IGROV1 ovarian = tested on: IGROV1 ovarian
SNB-19 CNS = tested on: SNB-19 CNS
HT29 colon = tested on: HT29 colon
NCI-H226 lung = tested on: NCI-H226 lung
MCF7 breast = tested on: MCF7 breast
OVCAR-4 ovarian = tested on: OVCAR-4 ovarian
UACC-257 melanoma = tested on: UACC-257 melanoma
PC-3 prostate = tested on: PC-3 prostate
MDA-MB-435 = tested on: MDA-MB-435
HL-60(TB) leukemia = tested on: HL-60(TB) leukemia
786-0 renal = tested on: 786-0 renal
RXF 393 renal = tested on: RXF 393 renal
SF-295 CNS = tested on: SF-295 CNS
SK-MEL-5 melanoma = tested on: SK-MEL-5 melanoma
SNB-75 CNS = tested on: SNB-75 CNS

Structure (SMILES): C#Cc1nc(C(=O)NCCC(=O)Nc2ccc(NC(=O)c3ccc(/C=C/C(=O)c4nccn4C)cc3)cc2)cs1
- GI50 (A549 NSCLC): 2230 nM
- TGI (A549 NSCLC): > 50000 nM
- GI50 (SK-OV-3 ovarian): 11500 nM
- TGI (SK-OV-3 ovarian): > 50000 nM
- GI50 (T-47D breast): 2220 nM
- TGI (T-47D breast): > 50000 nM
- GI50 (SF-268 CNS): 1720 nM
- TGI (SF-268 CNS): 13300 nM
- GI50 (EKVX NSCLC): 2790 nM
- TGI (EKVX NSCLC): > 50000 nM
- GI50 (M14 melanoma): 3430 nM
- TGI (M14 melanoma): 20800 nM
- GI50 (HS 578T breast): 4550 nM
- TGI (HS 578T breast): > 50000 nM
- GI50 (BT-549 breast): 1760 nM
- TGI (BT-549 breast): 11300 nM
- GI50 (DU-145 prostate): 2320 nM
- TGI (DU-145 prostate): > 50000 nM
- GI50 (TK-10 renal): 8940 nM
- TGI (TK-10 renal): > 50000 nM
- GI50 (CCRF-CEM leukemia): 954 nM
- TGI (CCRF-CEM leukemia): 2320 nM
- GI50 (SW-620 colon): 1230 nM
- TGI (SW-620 colon): 2830 nM
- GI50 (CAKI-1 renal): 2410 nM
- TGI (CAKI-1 renal): 20100 nM
- GI50 (MALME-3M melanoma): 1400 nM
- TGI (MALME-3M melanoma): 4640 nM
- GI50 (K-562 leukemia): 1200 nM
- TGI (K-562 leukemia): > 50000 nM
- GI50 (UO-31 renal): 763 nM
- TGI (UO-31 renal): 1490 nM
- GI50 (HCC-2998 colon): 2140 nM
- TGI (HCC-2998 colon): 7950 nM
- GI50 (COLO 205 colon): 4950 nM
- TGI (COLO 205 colon): 47000 nM
- GI50 (NCI/ADR-RES ovarian): 3270 nM
- TGI (NCI/ADR-RES ovarian): > 50000 nM
- GI50 (KM12 colon): 2880 nM
- TGI (KM12 colon): 32500 nM
- GI50 (HOP-92 NSCLC): 1070 nM
- TGI (HOP-92 NSCLC): 2780 nM
- GI50 (SK-MEL-28 melanoma): 7000 nM
- TGI (SK-MEL-28 melanoma): 29900 nM
- GI50 (OVCAR-5 ovarian): 1580 nM
- TGI (OVCAR-5 ovarian): 4940 nM
- GI50 (HCT-15 colon): 850 nM
- TGI (HCT-15 colon): 1980 nM
- GI50 (HCT-116 colon): 1000 nM
- TGI (HCT-116 colon): 2100 nM
- GI50 (NCI-H23 lung): 1220 nM
- TGI (NCI-H23 lung): 3410 nM
- GI50 (SN12C renal): 1300 nM
- TGI (SN12C renal): 4490 nM
- GI50 (MOLT-4 leukemia): 1290 nM
- TGI (MOLT-4 leukemia): 3530 nM
- GI50 (UACC-62 melanoma): 3010 nM
- TGI (UACC-62 melanoma): 10900 nM
- GI50 (OVCAR-8 ovarian): 1750 nM
- TGI (OVCAR-8 ovarian): > 50000 nM
- GI50 (NCI-H522 lung): 1040 nM
- TGI (NCI-H522 lung): 2270 nM
- GI50 (ACHN renal): 899 nM
- TGI (ACHN renal): 1660 nM
- GI50 (HOP-62 NSCLC): 1150 nM
- TGI (HOP-62 NSCLC): 2830 nM
- GI50 (NCI-H460 lung): 1570 nM
- TGI (NCI-H460 lung): 4600 nM
- GI50 (A498 renal): 7390 nM
- TGI (A498 renal): 19200 nM
- GI50 (SK-MEL-2 melanoma): 35800 nM
- TGI (SK-MEL-2 melanoma): > 50000 nM
- GI50 (MDA-MB-231 breast): 1130 nM
- TGI (MDA-MB-231 breast): 2600 nM
- GI50 (RPMI-8226 leukemia): 934 nM
- TGI (RPMI-8226 leukemia): 2200 nM
- GI50 (U251 CNS): 886 nM
- TGI (U251 CNS): 2040 nM
- GI50 (SF-539 CNS): 911 nM
- TGI (SF-539 CNS): 1670 nM
- GI50 (IGROV1 ovarian): 878 nM
- TGI (IGROV1 ovarian): 1800 nM
- GI50 (SNB-19 CNS): 1830 nM
- TGI (SNB-19 CNS): 7400 nM
- GI50 (HT29 colon): 1130 nM
- TGI (HT29 colon): 2540 nM
- GI50 (NCI-H226 lung): 1350 nM
- TGI (NCI-H226 lung): 4020 nM
- GI50 (MCF7 breast): 1260 nM
- TGI (MCF7 breast): 4980 nM
- GI50 (OVCAR-4 ovarian): 24900 nM
- TGI (OVCAR-4 ovarian): > 50000 nM
- GI50 (UACC-257 melanoma): 18700 nM
- TGI (UACC-257 melanoma): > 50000 nM
- GI50 (PC-3 prostate): 1380 nM
- TGI (PC-3 prostate): 3880 nM
- GI50 (MDA-MB-435): 1710 nM
- TGI (MDA-MB-435): 6790 nM
- GI50 (HL-60(TB) leukemia): 857 nM
- TGI (HL-60(TB) leukemia): 2530 nM
- GI50 (786-0 renal): 939 nM
- TGI (786-0 renal): 1760 nM
- GI50 (RXF 393 renal): 1040 nM
- TGI (RXF 393 renal): 2750 nM
- GI50 (SF-295 CNS): 2370 nM
- TGI (SF-295 CNS): 8430 nM
- GI50 (SK-MEL-5 melanoma): 3130 nM
- TGI (SK-MEL-5 melanoma): 11100 nM
- GI50 (SNB-75 CNS): 1430 nM
- TGI (SNB-75 CNS): 9710 nM
